Tests used:
[1] = tested on: TR146 cells; assay: FITC-Penetratin and Alexa 647-sCT internalization in TR146 cells (flow cytometry); format: cell-based, human; conditions: 2 h, FACS
Method: For the internalization of FITC-Penetratin and Alexa 647-sCT, Alexa 647-sCT was synthesized. Alexa-647 and sCT were left at room temperature for 2 h to react, and the reaction was terminated using ammonium chloride. Purification of Alexa 647-sCT was done through dialysis.
TR146 cells were seeded in a 6-well culture plate and confocal dish at a density of 5.0 × 10^5 cells per well, and incubated for 24 h at 37 °C in 5 % CO2. To determine the concentration at which optimal intracellular uptake of Penetratin occurs, FITC-Penetratin at 2.5, 5, 10, 15, 20, 30, and 40 μM were added and incubated for 2 h.
To confirm the effect of Penetratin on intracellular uptake of sCT, 1.22, 6.10 and 12.2 μM of FITC-Penetratin were added to 40 μg of Alexa 647-sCT and incubated for 2 h at 37 °C. For the energy-independent internalization of Penetratin, 40 μg of Alexa 647-sCT and 12.2 μM of FITC-Penetratin were added and incubated for 2 h at 4 °C (energy-abolishing condition) and 37 °C (biological condition). After 2 h, imaging study with flow cytometry (BD FACSverse; Becton Dickinson, Heidelberg, Germany) and confocal laser scanning microscopy (LSM 800, Zeiss, Oberkochen, Germany) were performed.
TR146 cells were treated with a pre-determined amount of FITC-Penetratin and Alexa 647-sCT in a 6-well culture plate. […]

[2] = tested on: TR146 cell layer; assay: In vitro cell permeation study (Transwell); format: in vitro ADME, human; design: Kp (permeability coefficient): unit not given here; conditions: 40 μg sCT; for Kp (permeability coefficient) / ER (enhancement ratio): TR146 Transwell; for Kp (permeability coefficient) / Js (flux): apical to basolateral, HBSS-HEPES, 37 °C, mean ± SD n = 3; for Kp (permeability coefficient): ELISA, Kp = Js/Cd; for Js (flux): TR146 layer on 12-well Transwell, 28–30 days culture, sampling 0.5–8 h, sCT ELISA
Method: (§1) TR146 cell was seeded in a 12-well Transwell insert (Corning Inc., Corning, NY, USA) at a density of 5 × 10^4 cells per cm^2, and the medium was changed every 2 days for 28–30 days. The experiment was conducted from apical to basolateral and HBSS-HEPES buffer was used as media. Forty micrograms of sCT and 1.22, 6.10, and 12.2 μM of Penetratin were added to apical chamber and kept at 37 °C. 500 μL of sampling was obtained at 0.5, 1, 2, 4 and 8 h. Transepithelial electrical resistance (TEER) value was measured before and after the experiment. TEER was calculated with the following Equation (1), where Rinsert with cell, Rinsert without cell, and A were insert filter areas. The permeated amount of sCT was analyzed using an sCT ELISA kit (Phoenix Pharmaceuticals, Burlingame, CA, USA):TEER = (Rinsert with cell − Rinsert without cell) × A(1)
(§2) The flux (Js) was calculated using the following Equation (2), where t (h) was permeation time, A( cm^2 ) was permeation area, and Qr (ng) was the permeated amount of sCT, (2) Js=Qr/A·t(ng·cm^−2·h^−1) Kp was calculated with the following Equation (3), (3) Kp=Js/Cd([…]) where Js was the flux from the steady state (ng⋅cm^−2⋅h^−1) and Cd was the initial concentration in the donor chamber (ng⋅cm^−3). Finally, the enhancement ratio (ER) was obtained by dividing the Kp value of each formulation with that of the control.

[3] = tested on: porcine buccal tissues; assay: Ex vivo buccal tissues permeation (Franz diffusion cell); format: in vitro ADME; conditions: 40 μg sCT; for Kp (permeability coefficient) / Js (flux): porcine buccal epithelium, 37 °C, mean ± SD n = 3; for Kp (permeability coefficient): Franz cell, pH 7.4 PBS, ELISA, Kp = Js/Cd; for Js (flux): Franz diffusion cell, area 2.0 cm^2, receptor 12.5 mL pH 7.4 PBS, 600 rpm, 8 h, sCT ELISA; for ER (enhancement ratio): porcine buccal tissue
Method: Buccal pre-treatment was performed according to the experimental method of Oh et al.. Briefly, porcine buccal tissues were immediately collected after pigs were sacrificed from a local slaughterhouse. Adipose and connective tissues were removed from buccal mucosa using surgical scissors. To obtain buccal epithelium, tissues were put in pH 7.4 PBS at 60 °C for 1 min. They were evaluated in the following in vitro permeation study.
Buccal permeability of sCT was evaluated using the Franz diffusion cell. The permeation area was 2.0 cm^2, and the volume of receptor media was 12.5 mL. The receptor was filled with pH 7.4 PBS and stirred at 600 rpm at 37 °C. The Franz diffusion cell was equilibrated for 30 min after mounting the buccal epithelium. Forty micrograms of sCT and of 1.22, 6.10 and 12.2 μM of Penetratin, of which molecular ratios were 1:0.1, 1:0.5 and 1:1 in donor part, respectively, were added to the Franz diffusion cell. Half of a milliliter of sample was obtained at different time intervals (1, 2, 4, and 8 h) from the receptor part and analyzed by a sCT ELISA kit (Phoenix Pharmaceuticals, Burlingame, CA, USA).
as §2

[4] = tested on: TR146 cell layers; assay: TEER before and after permeability experiments; format: cell-based, human; conditions: for TEER Value After: after permeability experiment (8 h, 37 °C); for TEER Value After / TEER Value Before: TR146 cell layers on Transwell; for TEER Recovery: after vs before permeability experiment, TR146 cell layers; for TEER Value Before: before permeability experiment
Method: as §1

[5] = no reference given for the value; cited from earlier work
Method: Penetratin is one of the most promising CPPs. Penetratin has positively charged amino acids such as lysine and arginine, and hydrophobic amino acids. Various cargoes were delivered by overcoming the barrier of the cell membrane, but the mechanism of CPPs and Cargo delivery through the cell membrane is still unclear. There is a possible explanation. At pH 7.4, where permeation and cell uptake experiments were conducted, sCT with a pI of 10.4 and penetratin have a positive charge, so there is no ionic interaction between penetratin and sCT. Penetratin and sCT form a hydrophobic interactio ...

[6] = Penetratin 1.22 μM, Kp of formulation divided by Kp of control
[7] = Penetratin 6.10 μM, Kp of formulation divided by Kp of control

FITC-Penetratin: FITC labeled Penetratin, purchased from Peptron
internalization of FITC-Penetratin at 4 °C ([1]; 12.2 μM FITC-Penetratin + 40 μg Alexa 647-sCT, 4 °C): confirmed | relative MFI of FITC-Penetratin (internalization) versus concentration ([1]; FITC-Penetratin 2.5–40 μM, 37 °C, n = 3): increased steeply from 2.5 to 15 μM, but increased more gradually from 15 to 40 μM

Salmon calcitonin [sCT]
Kp (permeability coefficient) ([2]; Penetratin 0 μM (control)): 0.201 ± 0.007 | Js (flux) ([2]; Penetratin 0 μM (control)): 16.091 ± 0.560 ng·cm^−2·h^−1 | Kp (permeability coefficient) ([2]; Penetratin 1.22 μM): 0.275 ± 0.041 | ER (enhancement ratio) [2, 6]: 1.4 | Js (flux) ([2]; Penetratin 1.22 μM): 22.004 ± 3.247 ng·cm^−2·h^−1 | Kp (permeability coefficient) ([2]; Penetratin 6.10 μM): 0.676 ± 0.063 | ER (enhancement ratio) [2, 7]: 3.4 | Js (flux) ([2]; Penetratin 6.10 μM): 54.075 ± 5.053 ng·cm^−2·h^−1 | Kp (permeability coefficient) ([2]; Penetratin 12.2 μM): 1.115 ± 0.140 | ER (enhancement ratio) ([2]; Penetratin 12.2 μM, Kp of formulation divided by Kp of control (text: fold increase of Js/flux)): 5.5 | Js (flux) ([2]; Penetratin 12.2 μM): 89.190 ± 11.227 ng·cm^−2·h^−1 | Kp (permeability coefficient) ([3]; Penetratin 0 μM (control)): 0.005 ± 0.000 cm·h^−2 × 10^−3 | Js (flux) ([3]; Penetratin 0 μM (control)): 0.208 ± 0.018 ng·cm^−2·h^−1 | Js (flux) ([3]; Penetratin 1.22 μM (sCT:Penetratin 1:0.1)): 1.973 ± 0.660 ng·cm^−2·h^−1 | Kp (permeability coefficient) ([3]; Penetratin 1.22 μM): 0.049 ± 0.017 cm·h^−2 × 10^−3 | ER (enhancement ratio) [3, 6]: 9.5 | Js (flux) ([3]; Penetratin 6.10 μM (sCT:Penetratin 1:0.5)): 6.707 ± 0.832 ng·cm^−2·h^−1 | Kp (permeability coefficient) ([3]; Penetratin 6.10 μM): 0.168 ± 0.021 cm·h^−2 × 10^−3 | ER (enhancement ratio) [3, 7]: 32.2 | Js (flux) ([3]; Penetratin 12.2 μM (sCT:Penetratin 1:1)): 19.507 ± 1.794 ng·cm^−2·h^−1 | Kp (permeability coefficient) ([3]; Penetratin 12.2 μM): 0.488 ± 0.045 cm·h^−2 × 10^−3 | ER (enhancement ratio) ([3]; Penetratin 12.2 μM, Kp of formulation divided by Kp of control (text: fold increase of flux / permeated amount)): 93.7 | TEER Value After ([4]; 40 μg sCT + Penetratin 0 μM): 60.48 ± 5.88 Ω·cm^2 | TEER Value After ([4]; 40 μg sCT + Penetratin 1.22 μM): 59.73 ± 2.94 Ω·cm^2 | TEER Value After ([4]; 40 μg sCT + Penetratin 6.10 μM): 60.11 ± 6.00 Ω·cm^2 | TEER Value After ([4]; 40 μg sCT + Penetratin 12.2 μM): 61.60 ± 6.62 Ω·cm^2 | TEER Recovery ([4]; 40 μg sCT + Penetratin 0 μM): 96.31 ± 1.78% | TEER Recovery ([4]; 40 μg sCT + Penetratin 1.22 μM): 94.21 ± 1.90% | TEER Recovery ([4]; 40 μg sCT + Penetratin 6.10 μM): 98.17 ± 2.64% | TEER Recovery ([4]; 40 μg sCT + Penetratin 12.2 μM): 96.52 ± 4.97% | TEER Value Before ([4]; group 40 μg sCT + Penetratin 0 μM): 62.72 ± 5.20 Ω·cm^2 | TEER Value Before ([4]; group 40 μg sCT + Penetratin 1.22 μM): 63.47 ± 3.99 Ω·cm^2 | TEER Value Before ([4]; group 40 μg sCT + Penetratin 6.10 μM): 61.23 ± 6.00 Ω·cm^2 | TEER Value Before ([4]; group 40 μg sCT + Penetratin 12.2 μM): 63.84 ± 6.42 Ω·cm^2 | pI [5]: 10.4

Reference: article PMC7700664, “In Vitro and Ex Vivo Evaluation of Penetratin as a Non-invasive Permeation Enhancer in the Penetration of Salmon Calcitonin through TR146 Buccal Cells and Porcine Buccal Tissues” (Pharmaceuticals, 2020)
